Like-named read-outs stand apart in the source and are kept apart here.
Columns and labels:
hLiMTs [1] = details: cited from earlier work
[2] = system: primary human hepatocytes, NIH3T3 fibroblasts, BSEP, CYP3A4; details: In vitro Assay; ref Schadt 2015; cited from earlier work
PHH = details: cited from earlier work
[3] = cited from earlier work
HepG2 cells [4] = details: In vitro Assay; ref O'Brien 2006; cited from earlier work
[5] = cited from earlier work; remark: listed apart in the source
HepG2 cells [6] = details: In vitro Assay; ref Persson 2013; cited from earlier work
[7] = system: THLE or HepG2 cells, isolated mitochondria, BSEP; details: In vitro Assay; ref Aleo 2019; cited from earlier work
human hepatocytes = details: In vitro Assay; ref Xu 2008; cited from earlier work
[8] = system: isolated mouse liver mitochondria; details: In vitro Assay; ref Porceddu 2012; cited from earlier work
hLiMTs [9] = experiment: Combined HCI (HCS) and cellular ATP 3D assay in hLiMTs; details: for AC50 / minimal effective concentration: Homo sapiens
HepaRG spheroids = experiment: Combined HCI (HCS) and cellular ATP 3D assay in HepaRG spheroids; details: HepaRG; for AC50 / minimal effective concentration: Homo sapiens
[10] = In vitro Assay, ref Proctor 2017

Cn1c(=O)c2[nH]cnc2n(C)c1=O [theophylline]
hLiMTs ATP <100uM (hLiMTs [1]): -VE | Cellular toxicity (3T3 cells) [2]: -VE | Combined Assay [2]: -VE | GSH adduct HML [2]: -VE | Hepatocyte cellular toxicity [2]: -VE | MitoTox 3T3 [2]: -VE | TDI CYP3A4 [2]: -VE | hBSEP inhibition [2]: -VE | PHH ATP <100uM (PHH): -VE

C[N+](C)(C)C[C@H](O)CC(=O)[O-] [levocarnitine]
hLiMTs ATP <100uM (hLiMTs [1]; [10]): -VE | In vivo DILI ([3]; ref Proctor 2017): -VE | PHH ATP <100uM (PHH; [10]): -VE

CCOC(=O)C(C)(C)Oc1ccc(Cl)cc1 [clofibrate]
Structural based (HCI) (HepG2 cells [4]): +VE | In vivo DILI ([3]; […]): -VE | In vivo DILI ([3]; ref Aleo 2019): +VE | In vivo DILI ([3]; ref O'Brien 2006): +VE | In vivo DILI ([3]; ref Persson 2013): +VE | DILI +VE (5-8), DILI -VE (-4) ([5]; ref Chen 2016): +VE | DILI severity category ([5]; ref Chen 2016): vLess-DILI-Concern | Cluser analysis (HepG2 cells [6]): -VE | Structural based (HCI) (HepG2 cells [6]): -VE | Partition Hybrid HRM Score [7]: +VE | Ro2 Hybrid HRM Score [7]: +VE

CC[N+](C)(CC)CCOC(=O)C(O)(c1ccccc1)C1CCCCC1 (stereo not shown) [oxyphenonium]
Structural based (HCI) (HepG2 cells [4]): -VE | In vivo DILI ([3]; ref O'Brien 2006): -VE | In vivo DILI ([3]; ref Persson 2013): -VE | In vivo DILI ([3]; ref Xu 2008): -VE | Cluser analysis (HepG2 cells [6]): -VE | Structural based (HCI) (HepG2 cells [6]): -VE | Structural based (HCI) (human hepatocytes): -VE

CCC1=C(C)CN(C(=O)NCCc2ccc(S(=O)(=O)NC(=O)N[C@H]3CC[C@H](C)CC3)cc2)C1=O [glimepiride]
in vitro data EC2<=1x Cmax [8]: -VE | in vitro data EC20<=2uM [8]: +VE | Structural based (HCI) (HepG2 cells [4]): -VE | In vivo DILI ([3]; ref Aleo 2019): +VE | In vivo DILI ([3]; ref O'Brien 2006): -VE | In vivo DILI ([3]; ref Persson 2013): -VE | In vivo DILI ([3]; ref Porceddu 2012): +VE | In vivo DILI ([3]; ref Xu 2008): -VE | DILI +VE (5-8), DILI -VE (-4) ([5]; ref Chen 2016): +VE | DILI severity category ([5]; ref Chen 2016): vLess-DILI-Concern | Cluser analysis (HepG2 cells [6]): -VE | Structural based (HCI) (HepG2 cells [6]): -VE | Structural based (HCI) (human hepatocytes): -VE | Partition Hybrid HRM Score [7]: -VE | Ro2 Hybrid HRM Score [7]: -VE

CNC(=O)Oc1ccc2c(c1)[C@]1(C)CCN(C)[C@@H]1N2C [eserine]
Structural based (HCI) (HepG2 cells [4]): +VE (lowest HCI endpoint IC50 (or in the absence of dose–response < 100 µM) < 30 × total human plasma exposure levels (Cmax.tot)) | In vivo DILI ([3]; ref O'Brien 2006): -VE | In vivo DILI ([3]; ref Persson 2013): -VE | In vivo DILI ([3]; ref Xu 2008): -VE | Cluser analysis (HepG2 cells [6]): -VE | Structural based (HCI) (HepG2 cells [6]): -VE | Structural based (HCI) (human hepatocytes): -VE

[H]/N=C(/N)c1ccc(NCc2nc3cc(C(=O)N(CCC(=O)O)c4ccccn4)ccc3n2C)cc1 [dabigatran]
hLiMTs ATP <100uM (hLiMTs [1]; [10]): -VE | Cellular toxicity (3T3 cells) [2]: -VE | Combined Assay [2]: -VE | GSH adduct HML [2]: -VE | Hepatocyte cellular toxicity [2]: +VE | MitoTox 3T3 [2]: -VE | TDI CYP3A4 [2]: -VE | hBSEP inhibition [2]: +VE | In vivo DILI ([3]; ref Proctor 2017): -VE | In vivo DILI ([3]; ref Schadt 2015): -VE | PHH ATP <100uM (PHH; [10]): -VE

NCCCC(O)(P(=O)(O)O)P(=O)(O)O [alendronate]
AC50 (hLiMTs [9]; read-out: ATP endpoint AC50): 7.71 µM | minimal effective concentration (hLiMTs [9]; read-out: ATP endpoint MEC): 2.86 µM | AC50 (hLiMTs [9]; read-out: HCS endpoint AC50): 15.6 µM | minimal effective concentration (hLiMTs [9]; read-out: HCS endpoint MEC): 2.24 µM | hLiMTs <10 uM All (hLiMTs [9]; hLiMTs, all endpoints, cut-off <10 uM): +ve (<10 uM) | HepaRG <10 uM All (HepaRG spheroids; all endpoints, cut-off <10 uM): +ve (<10 uM) | AC50 (HepaRG spheroids; read-out: ATP endpoint AC50): 0.822 µM | minimal effective concentration (HepaRG spheroids; read-out: ATP endpoint MEC): 0.291 µM | AC50 (HepaRG spheroids; read-out: HCS endpoint AC50): 3.13 µM | minimal effective concentration (HepaRG spheroids; read-out: HCS endpoint MEC): 0.58 µM | hLiMTs ATP <100uM (hLiMTs [1]; [10]): -VE | hLiMTs/100uM, Proctor (2017) (hLiMTs [1]; hLiMTs, ATP, IC50 threshold 100 µM, ref Proctor et al. 2017): -VE | PHH/100uM, Proctor (2017) (PHH; 2D PHH, ATP, IC50 threshold 100 µM, ref Proctor et al. 2017): -VE | PHH ATP <100uM (PHH; [10]): -VE

C[C@@](Cc1ccc(O)c(O)c1)(NN)C(=O)O [carbidopa]
Structural based (HCI) (HepG2 cells [4]): -VE | In vivo DILI ([3]; ref O'Brien 2006): -VE | In vivo DILI ([3]; ref Persson 2013): -VE | In vivo DILI ([3]; ref Xu 2008): -VE | DILI +VE (5-8), DILI -VE (-4) ([5]; ref Chen 2016): -VE | DILI severity category ([5]; ref Chen 2016): Ambiguous DILI-concern | Cluser analysis (HepG2 cells [6]): -VE | Structural based (HCI) (HepG2 cells [6]): -VE | Structural based (HCI) (human hepatocytes): -VE | Partition Hybrid HRM Score [7]: -VE | Ro2 Hybrid HRM Score [7]: -VE

CO[C@@]12[C@H](COC(N)=O)C3=C(C(=O)C(C)=C(N)C3=O)N1C[C@@H]1N[C@@H]12 [mitomycin]
PHH ATP <100uM (PHH): +VE (key: +VE: IC50 threshold of 100 µM)

CO[C@@H]1[C@@H](OC(N)=O)[C@@H](O)[C@H](Oc2ccc3c(O)c(NC(=O)c4ccc(O)c(CC=C(C)C)c4)c(=O)oc3c2C)OC1(C)C [novobiocin]
in vitro data EC2<=1x Cmax [8]: -VE | in vitro data EC20<=2uM [8]: +VE | Structural based (HCI) (HepG2 cells [4]): -VE | In vivo DILI ([3]; ref O'Brien 2006): +VE | In vivo DILI ([3]; ref Persson 2013): +VE | In vivo DILI ([3]; ref Porceddu 2012): +VE | In vivo DILI ([3]; ref Xu 2008): +VE | Cluser analysis (HepG2 cells [6]): -VE | Structural based (HCI) (HepG2 cells [6]): -VE | Structural based (HCI) (human hepatocytes): +VE

CCOC(=O)C1=C(C)NC(C)=C(C(=O)OC)C1c1cccc(Cl)c1Cl (stereo not shown) [felodipine]
hLiMTs ATP <100uM (hLiMTs [1]): -VE | In vivo DILI ([3]; in vivo): -VE | DILI +VE (5-8), DILI -VE (-4) ([5]; in vivo): +VE | DILI severity category ([5]; in vivo): vLess-DILI-Concern | PHH ATP <100uM (PHH): -VE

O=C(CCNNC(=O)c1ccncc1)NCc1ccccc1 [nialamide]
Structural based (HCI) (HepG2 cells [4]): +VE (lowest HCI endpoint IC50 (or in the absence of dose–response < 100 µM) < 30 × total human plasma exposure levels (Cmax.tot)) | In vivo DILI ([3]; ref O'Brien 2006): -VE | In vivo DILI ([3]; ref Persson 2013): -VE | DILI +VE (5-8), DILI -VE (-4) ([5]; ref Chen 2016): +VE | DILI severity category ([5]; ref Chen 2016): vMost-DILI-Concern | Cluser analysis (HepG2 cells [6]): -VE | Structural based (HCI) (HepG2 cells [6]): -VE

Cc1cnc(NC(=O)C2=C(O)c3ccccc3S(=O)(=O)N2C)s1 [meloxicam]
hLiMTs ATP <100uM (hLiMTs [1]): -VE | Cellular toxicity (3T3 cells) [2]: -VE | Combined Assay [2]: -VE | GSH adduct HML [2]: -VE | Hepatocyte cellular toxicity [2]: -VE | MitoTox 3T3 [2]: -VE | TDI CYP3A4 [2]: -VE | hBSEP inhibition [2]: -VE | DILI +VE (5-8), DILI -VE (-4) ([5]; in vivo): +VE | DILI severity category ([5]; in vivo): vLess-DILI-Concern | PHH ATP <100uM (PHH): -VE

COc1cc(N)c(Cl)cc1C(=O)NC1CCN(CCCOc2ccc(F)cc2)CC1OC (stereo not shown) [cisapride]
Structural based (HCI) (HepG2 cells [4]): +VE | In vivo DILI ([3]; […]): -VE | In vivo DILI ([3]; ref O'Brien 2006): -VE | In vivo DILI ([3]; ref Persson 2013): -VE | In vivo DILI ([3]; ref Xu 2008): -VE | Cluser analysis (HepG2 cells [6]): -VE | Structural based (HCI) (HepG2 cells [6]): -VE | Structural based (HCI) (human hepatocytes): -VE

OC(CCN1CCCC1)(c1ccccc1)C1CCCCC1 (stereo not shown) [procyclidine]
hLiMTs ATP <100uM (hLiMTs [1]): -VE | In vivo DILI ([3]; in vivo): -VE | DILI +VE (5-8), DILI -VE (-4) ([5]; in vivo): -VE | DILI severity category ([5]; in vivo): vNo-DILI-Concern | PHH ATP <100uM (PHH): +VE (key: +VE: IC50 threshold of 100 µM)

CC1=C(/C=C/C(C)=C/C=C/C(C)=C/C(=O)O)C(C)(C)CCC1 [tretinoin]
hLiMTs ATP <100uM (hLiMTs [1]; [10]): +VE (IC50 threshold of 100 µM) | In vivo DILI ([3]; ref Proctor 2017): +VE | DILI +VE (5-8), DILI -VE (-4) ([5]; ref Chen 2016): -VE | DILI severity category ([5]; ref Chen 2016): Ambiguous DILI-concern | PHH ATP <100uM (PHH; [10]): -VE

CCN1C(=O)NC(c2ccccc2)C1=O (stereo not shown) [ethotion]
hLiMTs ATP <100uM (hLiMTs [1]): -VE | PHH ATP <100uM (PHH): -VE
